{"source": "patent US12582620B2", "about": "“Oral solutions comprising lisdexamfetamine salts” (Adalvo Limited, priority 2019, dated 2026)", "origin": "cited, not measured here", "key": {"[1]": {"conditions": "acidic versus alkaline conditions"}, "[2]": {"assay": "not given", "remark": "listed apart in the source"}}, "data": [{"smiles": "C[C@@H](Cc1ccccc1)NC(=O)[C@@H](N)CCCCN", "note": "[Lisdexamfetamine dimesylate, (2S)-2,6-diamino-N-[(1S)-1-methyl-2-phenylethyl] hexanamide dimethanesulfonate]", "values": [{"measurement": "Susceptibility to hydrolysis", "setting": "[1]", "result": "more hydrolysis-susceptible under alkaline conditions"}, {"measurement": "Solubility in water", "result": "very soluble in water"}, {"measurement": "Change of solubility", "setting": "[2]; increasing the pH from 8 to 13", "result": "modest reductions"}, {"measurement": "Solubility", "setting": "[2]; physiologically relevant pH range (pH 1-8), saturated buffered aqueous solutions", "result": "highly soluble"}]}]}
